Data reported in US8629166B2, “5-cycloalkyl- or 5-heterocyclyl-nicotinamides” (Hoffmann-La Roche Inc., priority 2011, dated 2014).

How the values were obtained:
ABCA1 protein = experiment: Detection of upregulation of ABCA1 protein in cells (ApoA-I binding, high content image analysis); type: cell-based; details: THP-1 macrophage cells; for % increase of ABCA1 at 3 μM: compound at 3 μM, 24 hrs; for EC50: ABCA1 protein increasing efficacy
Description: Detection of Upregulation of ABCA1 Protein in Cells
The ability of compounds of the invention to increase the level of ABCA1 protein is determined in replicate cultures of THP-1 macrophage cells in 96-well microplates. Cells are plated at an initial density of 100,000 cells/well in 100 μl medium and differentiated to adherent macrophages with the addition of PMA (100 nM) for 68 hrs in 10% fetal bovine serum, 3 μl/L of b-mercaptoethanol, RPMI-1640 medium. Then, cells are incubated with RPMI-1640 medium containing 1% FCS, 25 μg/ml acetylated LDL, for 24 hours at 37° C. Following incubation with acetylated LDL, cells are washed twice with 50 μl PBS and incubated with 100 μl of RPMI-1640 medium containing the compound of interest solubilized in DMSO for an additional 24 hrs. The final DMSO concentration in presence of cells is maintained at 0.5%. ApoA-I binding assay using High Content Image Analysis is initiated by replacing with fresh medium, RPMI without Phenol Red, 0.2% BSA containing AlexaFluor®647 labeled ApoA-I for 2 h/37° C./5% CO2. Then, cells are fixed with 4% Formaldehyde in PBS (15 min, RT). Following Nuclei are stained with Hoechst solution (3 μM PBS) and Cytoplasm with Cell Mask Blue (2 μg/ml PBS), 15 min, RT. Finally the stained cells are fixed with a second round of formaldehyde treatment. Fixed stained cells are washed and kept in PBS at 4° C. and can be read immediately until one month after preparation.
The Alexa Fluor 647-labeled Apolipoprotein A-I (20 nM) was prepared as follows: Human recombinant Apolipoprotein A-I (ApoA-I) was exchanged to a buffer of 0.02 M NaHCO3 at pH 8.2 on an NAP desalting column (GE Healthcare) and brought to a concentration to 40 μM (1.13 mg/ml) by adjustment with the same buffer. The ApoA-I was fluorescently labeled by incubation with Alexa Fluor carboxylic acid succimidyl ester (Alexa Fluor 647, Invitrogen A-20006) at a 2:1 molar ratio (Alexa to ApoA-I) for 1 h under shaking at RT. The remaining unconjugated label was removed by buffer exchange to 0.02M NaHCO3 at pH 8.2.
Imaging and data collection were performed on an OPERA confocal microplate imaging reader using a 20× water immersion objective and UV360 or 405 laser to identify the cell nuclei and a 635 laser to identify the fluorescent ApoA-I. Eight fields of view are captured per well. Image capture and analysis was performed with the Acapella software. Background fluorescence detected in control wells without ApoA-I was subtracted.
Using XLfit3 program (ID Business Solutions Ltd. UK), the model 205 for Dose Response One Site is used to calculate the EC50 values. […] Particularly, the compounds of the present invention have EC50 values in a range of 0.1 μM to 3 μm.

human CB1 receptor = molecular target: T1, human CB1 receptor (Homo sapiens, UniProt P21554); experiment: CB1 receptor affinity ([3H]-CP-55,940 displacement, HEK cell membranes); type: binding; details: displacement of [3H]-CP-55,940 at 10 μM
T1 construct: expressed in transfected cells; host or cells: human embryonic kidney (HEK) cells, Semliki Forest Virus system, membrane preparation
Description: (§1) CB1 and CB2 Receptor Affinity
(§2) The affinity of the compounds of the invention for cannabinoid receptors was determined using membrane preparations of human embryonic kidney (HEK) cells in which the human CB1 receptor is transiently transfected using a Semliki Forest Virus system in conjunction with [3H]-CP-55,940 as radioligand. After incubation of freshly prepared cell membrane preparation with the [^3H]-ligand, with or without addition of compounds of the invention, separation of bound and free ligand was performed by filtration over glass fiber filters. Radioactivity on the filter was measured by scintillation counting.
(§3) The ability of the compounds to displace the radioligand [^3H]-CP-55,940 was measured at a concentration of 10 μM and values provided as [% inhibition @ 10 μM] both for the CB1 and CB2 receptor assay, The lower % inhibition is, the lower the likelihood of side effects based on CB1 or CB2 receptor inhibition is.

human CB2 receptor = molecular target: T2, human CB2 receptor (Homo sapiens, UniProt P34972); experiment: CB2 receptor affinity ([3H]-CP-55,940 displacement, HEK cell membranes); type: binding; details: displacement of [3H]-CP-55,940 at 10 μM
T2 construct: expressed in transfected cells; host or cells: human embryonic kidney (HEK) cells, Semliki Forest Virus system, membrane preparation
Description: as §1
as §2, with “cannabinoid CB2” for “cannabinoid”, “CB2” for “CB1”, “[^3H]-CP-55,940” for “[3H]-CP-55,940”
as §3

T2 sequence (P34972 whole entry): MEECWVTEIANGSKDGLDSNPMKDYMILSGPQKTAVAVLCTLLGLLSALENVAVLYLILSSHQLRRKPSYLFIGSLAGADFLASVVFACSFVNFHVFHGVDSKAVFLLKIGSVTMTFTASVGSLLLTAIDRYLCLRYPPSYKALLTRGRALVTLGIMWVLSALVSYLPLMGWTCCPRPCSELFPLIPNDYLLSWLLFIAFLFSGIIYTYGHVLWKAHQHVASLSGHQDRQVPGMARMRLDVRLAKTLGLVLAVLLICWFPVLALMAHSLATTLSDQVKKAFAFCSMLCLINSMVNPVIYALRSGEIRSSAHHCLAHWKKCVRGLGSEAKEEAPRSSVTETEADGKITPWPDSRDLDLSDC
T1 sequence (P21554 whole entry): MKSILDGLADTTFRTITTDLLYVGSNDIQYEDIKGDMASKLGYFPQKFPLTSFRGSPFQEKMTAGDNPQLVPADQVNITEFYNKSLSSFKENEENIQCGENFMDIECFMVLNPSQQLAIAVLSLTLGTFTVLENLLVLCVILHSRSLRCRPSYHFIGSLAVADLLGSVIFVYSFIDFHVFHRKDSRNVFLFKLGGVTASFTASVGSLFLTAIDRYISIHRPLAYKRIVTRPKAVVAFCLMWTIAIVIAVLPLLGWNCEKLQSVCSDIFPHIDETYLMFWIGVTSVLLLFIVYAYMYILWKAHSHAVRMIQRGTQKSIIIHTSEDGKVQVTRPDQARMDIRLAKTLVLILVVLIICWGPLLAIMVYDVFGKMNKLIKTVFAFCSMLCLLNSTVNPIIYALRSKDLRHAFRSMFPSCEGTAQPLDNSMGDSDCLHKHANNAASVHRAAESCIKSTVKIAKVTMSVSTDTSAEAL

| SMILES | % increase of ABCA1 at 3 μM (ABCA1 protein) | CB1 receptor affinity [% inhibition @ 10 μM] (human CB1 receptor) | CB2 receptor affinity [% inhibition @ 10 μM] (human CB2 receptor) | EC50 (ABCA1 protein) |
| --- | --- | --- | --- | --- |
| O=C(Nc1cncnc1)c1cnc(OCC(F)(F)F)c(C2CCCC2)c1 [Example 22, 5-cyclopentyl-N-pyrimidin-5-yl-6-(2,2,2-trifluoro-ethoxy)-nicotinamide] | >45% @ 3 μM | 12 % inhibition | −11 % inhibition | – |
| O=C(NCc1nc(C(F)(F)F)no1)c1cnc(OCC(F)(F)F)c(C2=CCOCC2)c1 [Example 5, 5-(3,6-dihydro-2H-pyran-4-yl)-6-(2,2,2-trifluoro-ethoxy)-N-(3-trifluoromethyl-[1,2,4]oxadiazol-5-ylmethyl)-nicotinamide] | – | 15 % inhibition | −2 % inhibition | 2920 nM |
| O=C(NCc1nc(C(F)(F)F)no1)c1cnc(OCC(F)(F)F)c(C2CCCCC2)c1 [Example 4, 5-cyclohexyl-6-(2,2,2-trifluoro-ethoxy)-N-(3-trifluoromethyl-[1,2,4]oxadiazol-5-ylmethyl)-nicotinamide] | – | 31 % inhibition | 2 % inhibition | 150 nM |
| O=C(Nc1cccnn1)c1cnc(OCC(F)(F)F)c(C2CCCC2)c1 [Example 9, 5-cyclopentyl-N-pyridazin-3-yl-6-(2,2,2-trifluoro-ethoxy)-nicotinamide] | – | 7 % inhibition | 9 % inhibition | 10000 nM |
| O=C(Nc1cnccn1)c1cnc(OCC(F)(F)F)c(C2CCCCC2)c1 [Example 27, 5-cyclohexyl-N-pyrazin-2-yl-6-(2,2,2-trifluoro-ethoxy)-nicotinamide] | >45% @ 3 μM | 18 % inhibition | 11 % inhibition | – |
| O=C(Nc1ccncn1)c1cnc(OCC(F)(F)F)c(C2CCCCC2)c1 [Example 21, 5-cyclohexyl-N-pyrimidin-4-yl-6-(2,2,2-trifluoro-ethoxy)-nicotinamide] | >45% @ 3 μM | 38 % inhibition | −4 % inhibition | – |
| O=C(NCc1csc(C2CC2)n1)c1cnc(OCC(F)(F)F)c(C2CCCCC2)c1 [Example 16, 5-cyclohexyl-N-(2-cyclopropyl-thiazol-4-ylmethyl)-6-(2,2,2-trifluoro-ethoxy)-nicotinamide] | >45% @ 3 μM | 25 % inhibition | 5 % inhibition | – |
| N#Cc1ccc(NC(=O)c2cnc(OCC(F)(F)F)c(C3CCCCC3)c2)cc1 [Example 24, N-(4-cyano-phenyl)-5-cyclohexyl-6-(2,2,2-trifluoro-ethoxy)-nicotinamide] | >45% @ 3 μM | 10 % inhibition | −17 % inhibition | – |
| O=C(Nc1cccnc1)c1cnc(OCC(F)(F)F)c(C2CCCCC2)c1 [Example 6, 5-cyclohexyl-N-pyridin-3-yl-6-(2,2,2-trifluoro-ethoxy)-nicotinamide] | – | 17 % inhibition | 2 % inhibition | 3390 nM |
| O=C(Nc1cccnc1)c1cnc(OCC(F)(F)F)c(C2CCCC2)c1 [Example 8, 5-cyclopentyl-N-pyridin-3-yl-6-(2,2,2-trifluoro-ethoxy)-nicotinamide] | >45% @ 3 μM | 49 % inhibition | 13 % inhibition | – |
| Cc1noc(CNC(=O)c2cnc(OCC(F)(F)F)c(C3CCCCC3)c2)n1 [Example 14, 5-cyclohexyl-N-(3-methyl-[1,2,4]oxadiazol-5-ylmethyl)-6-(2,2,2-trifluoro-ethoxy)-nicotinamide] | >45% @ 3 μM | 34 % inhibition | 3 % inhibition | – |
| CCN(C(=O)c1cnc(OCC(F)(F)F)c(C2=CCCCC2)c1)C(C)C [Example 2, 5-cyclohex-1-enyl-N-ethyl-N-isopropyl-6-(2,2,2-trifluoro-ethoxy)-nicotinamide] | >45% @ 3 μM | 37 % inhibition | 3 % inhibition | – |
| O=C(NCc1nc(C(F)(F)F)no1)c1cnc(OCC(F)(F)F)c(C2=CCCCC2)c1 [Example 3, 5-cyclohex-1-enyl-6-(2,2,2-trifluoro-ethoxy)-N-(3-trifluoromethyl-[1,2,4]oxadiazol-5-ylmethyl)-nicotinamide] | >45% @ 3 μM | 42 % inhibition | −1 % inhibition | – |
| O=C(NCc1ccn(CC2CC2)n1)c1cnc(OCC(F)(F)F)c(C2CCCC2)c1 [Example 17, 5-cyclopentyl-N-(1-cyclopropylmethyl-1H-pyrazol-3-ylmethyl)-6-(2,2,2-trifluoro-ethoxy)-nicotinamide] | >45% @ 3 μM | 25 % inhibition | 9 % inhibition | – |
| O=C(Nc1ccccn1)c1cnc(OCC(F)(F)F)c(C2CCCC2)c1 [Example 10, 5-cyclopentyl-N-pyridin-2-yl-6-(2,2,2-trifluoro-ethoxy)-nicotinamide] | – | 9 % inhibition | −9 % inhibition | 1010 nM |
| O=C(NCc1nc(C(F)(F)F)no1)c1cnc(OCC(F)(F)F)c(C2CCCC2)c1 [Example 11, 5-cyclopentyl-6-(2,2,2-trifluoro-ethoxy)-N-(3-trifluoromethyl-[1,2,4]oxadiazol-5-ylmethyl)-nicotinamide] | >45% @ 3 μM | 29 % inhibition | −3 % inhibition | – |
| COc1cc(CNC(=O)c2cnc(OCC(F)(F)F)c(C3CCCCC3)c2)on1 [Example 13, 5-cyclohexyl-N-(3-methoxy-isoxazol-5-ylmethyl)-6-(2,2,2-trifluoro-ethoxy)-nicotinamide] | >45% @ 3 μM | 45 % inhibition | 5 % inhibition | – |
| O=C(Nc1cncnc1)c1cnc(OCC(F)(F)F)c(C2CCCCC2)c1 [Example 19, 5-cyclohexyl-N-pyrimidin-5-yl-6-(2,2,2-trifluoro-ethoxy)-nicotinamide] | >45% @ 3 μM | 20 % inhibition | −11 % inhibition | – |
| O=C(NCc1ccn(CC2CC2)n1)c1cnc(OCC(F)(F)F)c(C2CCCCC2)c1 [Example 15, 5-cyclohexyl-N-(1-cyclopropylmethyl-1H-pyrazol-3-ylmethyl)-6-(2,2,2-trifluoro-ethoxy)-nicotinamide] | >45% @ 3 μM | 49 % inhibition | 14 % inhibition | – |
